Patent publication US20240360107A1, “AN EIF4A INHIBITOR WITH A NOVEL MECHANISM OF ACTION” (ARIZONA BOARD OF REGENTS ON BEHALF OF THE UNIVERSITY OF …, priority 2021, published 2024)
Entries after “also recorded” stand apart in the source; their conditions may differ. Like-named read-outs stand apart in the source and are kept apart here.

Key:
[1] = tested on: BJAB Burkitt lymphoma cells; experiment: CellTiter-Glo Luminescent Cell Viability assay; type: cell-based; settings: 72 h; for effect on BJAB cell viability: top concentration 10 uM
Description: Compounds 1 and compound 28 were evaluated in a CellTiter-Glo (CTG) Luminescence cell viability assay in BJAB Burkitt lymphoma cells that are known to be sensitive to eIF4A inhibition. This assay quantitates the number of living, metabolically active cells by measuring their ATP levels.
Cell viability assay. BJAB lymphoma cells were plated in quadruplicate at 5,000 cells/well in serial dilutions of drug ranging two logs with the top concentration of compounds tested at 10 uM. Viability was measured after 72 h using Cell Titer Glo (Promega G7573) following the manufacturer's protocol. Luminescence was detected on the BioTek HT Synergy plate reader and values were normalized to vehicle-treated (DMSO) wells. Silvestrol was included as a positive control (not shown).

[2] = tested on: HCV IRES-dependent translation of Renilla luciferase; experiment: in vitro translation of bicistronic luciferase reporter in rabbit reticulocyte lysate, Renilla luciferase; type: biochemical; settings: Cycloheximide 600 μM, Silvestrol 100 nM
Excerpt: A bicistronic luciferase reporter ([…]) (FIG. 7B, top) was programmed into rabbit reticulocyte lysates, cellular extracts capable of performing both cap-dependent and Hepatitis C virus (HCV) internal ribosomal entry site (IRES)-mediated translation. eIF4A is the enzymatic driver of cap-dependent translation and is not involved in translation through HCV IRES. Compounds that inhibit eIF4A should inhibit cap-dependent translation of firefly (FF) luciferase while leaving IRES-mediated translation of Renilla (Ren) luciferase relatively unaffected. The inhibitory activities of cycloheximide, silvestrol, and 28 were assessed in this in vitro translation assay (FIG. 7B, bottom). […] The ability of compound 28 to preferentially target cap-dependent translation in a similar manner as silvestrol provides promising evidence that 28 inhibits eIF4A and not other proteins in the general translational machinery.
The dual-luciferase reporter plasmid pSP/(CAG)33/FF/HCV/Ren-pA51 was linearized with BamHI and subsequently in vitro transcribed using the Promega mMessage mMachine SP6 transcription kit, according to manufacturer's specifications. RNA was precipitated with LiCI and resuspended in H2O for use in in vitro translation experiments. Rabbit reticulocyte lysate (RRL) (nuclease-treated, Promega) was used to assess inhibitory effects of 28 on translation of the dual-reporter. Briefly, a reaction consisting of 50% RRL, 30 ng/μL reporter RNA, 10 μM Amino Acid Mixture Minus Methionine, 10 μM Amino Acid Mixture Minus Leucine, […], 1 U/μL RNAseOut (Thermo), and drug (final DMSO concentration 1%) were incubated at 30° C. for 90 minutes. The reaction was quenched with 50 μL 1× Passive Lysis Buffer (Promega), 10 μL of the mix was transferred to a 96-well white plate (Cellstar), and the Dual-Reporter Luciferase Assay System (Promega) was used to generate luminescence according to the manufacturer's instructions. Luminescence was detected using a plate reader (BioTek HT Synergy).

eIF4A [3] = biological target: T1, eIF4A (Homo sapiens, UniProt P60842); experiment: kinetic testing using the malachite green assay (ATP and RNA titration); type: biochemical; design: 6xHis with TEV protease site (N, cleaved yes); made in house; host or cells: E. coli BL21-CodonPlus; settings: for Alpha value for ATP / Ki / Alpha value for RNA: mixed-model inhibition fit
T1 sequence (P60842 whole entry): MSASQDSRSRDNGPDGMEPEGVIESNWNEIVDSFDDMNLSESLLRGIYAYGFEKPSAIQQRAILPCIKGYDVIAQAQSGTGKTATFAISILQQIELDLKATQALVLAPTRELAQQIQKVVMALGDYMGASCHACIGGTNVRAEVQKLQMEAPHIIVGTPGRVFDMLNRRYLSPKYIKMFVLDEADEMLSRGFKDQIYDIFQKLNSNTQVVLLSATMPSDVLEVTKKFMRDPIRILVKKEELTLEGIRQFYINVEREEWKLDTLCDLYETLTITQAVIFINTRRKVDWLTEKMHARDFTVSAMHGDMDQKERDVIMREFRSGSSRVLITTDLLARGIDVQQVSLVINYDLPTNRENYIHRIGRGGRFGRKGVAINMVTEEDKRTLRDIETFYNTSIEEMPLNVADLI
Description: (§1) ATP titration (left) used 250 μg/mL RNA. Data were fit using unbiased mixed-model inhibition in Prism 6.0. Alpha value for ATP is 0.424, indicating an ATP-uncompetitive inhibitor. Kiapp for ATP is 10.3 μM. RNA titration (right) used 250 μM ATP. […] Kiapp for RNA is 9.59 μM. Data shown are an average of 3 independent experiments.
as §1, with “was done with” for “used”, “0.514,” for “0.424,”, “ATP=4.79” for “ATP is 10.3”, “RNA=4.27” for “RNA is 9.59”
ATPase assay. Recombinant WT or mutant eIF4A was added to a clear bottom 384 well plate (Greiner) in ATPase buffer (20 mM Tris pH 7.4, 80 mM KCl, 2.5 mM MgCl2, 1 mM DTT, 1% glycerol). Compounds were added and the plate was incubated at 37° C. for 20 min. ATP/RNA solution was added to afford a 20 μL per well reaction volume with 750 nM eIF4A, 250 μM ATP, and 0.25 mg/mL Yeast RNA (Sigma) for the initial screen and dose responses, and varying concentrations of ATP and RNA for the kinetic assays. The plate was incubated for 4 h at 37° C. for the initial screen and dose responses, and at seven time points (1 hour-7 hours) for kinetic assays. 0.04% v/v (final concentration) Tween-20 was added to a Malachite Green solution, and the Malachite Green (40 μL per well) was added. The solution was incubated for 5 minutes at room temperature and Absorbance at 660 nm was read on a SpectraMax iD5 plate reader (Molecular Devices).

eIF4A [4] = biological target: T1, eIF4A; experiment: Thermal Shift Assay (TSA)/Differential Scanning Fluorimetry (DSF); type: binding; design: 6xHis with TEV protease site (N, cleaved yes); made in house; host or cells: E. coli BL21-CodonPlus; settings: 5 μM eIF4A, 2 mM AMPPNP
Description: Further evidence of this was uncovered in a thermal shift assay (TSA) using DSF with eIF4A and compound 28. […] Larger doses of compound 28 caused larger melting temperature (Tm) shifts in this assay, which argues that compound 28 is directly binding eIF4A.
Thermal Shift Assay (TSA)/Differential Scanning Fluorimetry (DSF). TSA/DSF experiments were performed on a Lightcycler 480 II (Roche Molecular Systems). eIF4A (5 μM) in buffer (20 mM Tris (pH 7.5), 10% glycerol, 0.1 mM EDTA, 2 mM DTT, 2 mM AMPPNP, 4% DMSO) was added to 96-well PCR plates (USA Scientific, Inc.) with or without compound. After a 5 min incubation, SYPRO orange dye was added to a final concentration of 5×. Samples were melted over a gradient from 20 to 85° C. with 20 acquisitions per ° C. at a ramp rate of 0.03° C./s.

[5] = ATP titration, 250 μg/mL RNA, read-out: Kiapp for ATP
[6] = RNA titration, 250 μM ATP, read-out: Kiapp for RNA

EC50 ([1]; Homo sapiens, CellTiter-Glo, n=4)	SMILES	effect on BJAB cell viability [1]	effect on HCV IRES-mediated translation (Renilla luciferase) [2]	mechanism of inhibition with respect to ATP (eIF4A [3])	mechanism of inhibition with respect to RNA (eIF4A [3])	Alpha value for ATP (eIF4A [3]; ATP titration, 250 μg/mL RNA)	Ki (eIF4A [3]; [5])	Alpha value for RNA (eIF4A [3]; RNA titration, 250 μM ATP)	Ki (eIF4A [3]; [6])	eIF4A thermal stability / melting temperature (TSA) (eIF4A [4])
	CCCCc1ccc(-c2ccc(-c3cc(C(=O)O)c4cc([N+](=O)[O-])ccc4n3)o2)cc1 [Compound 28, 2-(5-(4-butylphenyl)furan-2-yl)-6-nitroquinoline-4-carboxylic acid]	three to four times more potent than 1; also recorded: decrease BJAB cell viability	only show a modest effect on HCV IRES-dependent translation of Renilla luciferase	ATP-uncompetitive	RNA-competitive	0.514	4.79 µM	4.52×10^21	4.27 µM	increased eIF4A stability
2.13 ± 0.17 µM	CCCCc1ccc(-c2ccc(-c3cc(C(=O)O)c4cc(Br)ccc4n3)o2)cc1 [Compound 1, 6-bromo-2-(5-(4-butylphenyl)furan-2-yl)quinoline-4-carboxylic acid]	decrease BJAB cell viability		uncompetitive with respect to ATP	RNA-competitive	0.424	10.3 µM	4.53×10^13	9.59 µM	
